From ChEMBL document CHEMBL4387782, “A new approach to procyanidins synthesis with potent anti-adipogenic effects” (Bioorg Med Chem Lett, 2019) come the findings set out here.

Calls of active or inactive are those of the source. No cut-off for these calls is given here.

Data set [1] has as its target T1, Pancreatic triacylglycerol lipase (Sus scrofa, UniProt P00591).
T1 sequence (P00591 whole entry): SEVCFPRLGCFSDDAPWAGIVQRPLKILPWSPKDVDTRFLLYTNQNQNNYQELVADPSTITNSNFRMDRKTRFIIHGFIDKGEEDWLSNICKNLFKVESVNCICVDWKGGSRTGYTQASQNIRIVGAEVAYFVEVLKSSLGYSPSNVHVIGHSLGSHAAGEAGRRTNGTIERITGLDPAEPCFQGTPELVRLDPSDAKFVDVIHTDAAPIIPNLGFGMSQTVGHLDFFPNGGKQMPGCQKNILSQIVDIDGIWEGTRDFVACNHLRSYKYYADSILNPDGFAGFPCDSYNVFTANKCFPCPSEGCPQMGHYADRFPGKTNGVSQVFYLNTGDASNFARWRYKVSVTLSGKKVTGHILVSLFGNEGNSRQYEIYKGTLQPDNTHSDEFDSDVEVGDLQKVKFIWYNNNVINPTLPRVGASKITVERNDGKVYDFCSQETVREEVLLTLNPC
The data set is described as follows: Inhibition of porcine pancreatic lipase using pNPB as substrate measured after 30 mins.

Data set [2] deals with 3T3-L1. Nature of the data set: Cytotoxicity against mouse 3T3L1 cells assessed as effect on cell viability up to 50 uM by MTT assay. The format is cell-based. For orientation: Tetrazolium assays rely on reduction of a dye to a coloured formazan, in cell work by metabolically active cells.
Data set [3] can be described thus: Cytotoxicity against mouse 3T3L1 cells assessed as reduction in cell viability after 48 hrs by sulforhodamine B assay. The format is cell-based. The following applies: 3T3-L1 cells. On the technique in general: The SRB assay estimates cell density from bound dye.
The test system of data set [4] is 3T3-L1. Nature of the data set: Anti-adipogenic activity in mouse 3T3L1 preadipocytes assessed as decrease in lipid accumulation at 5 uM incubated for 8 days in differentiation media by Oil Red O staining based ELISA relative to control. The arrangement: scale not given: the % may be the effect or the level left. The format is functional.
The subject of data set [5] is 3T3-L1. Nature of the data set: Inhibition of cell differentiation in mouse 3T3L1 cells assessed as reduction in pre-adipocyte differentiation into matured adipocytes at 2.5 to 10 uM incubated for 8 days in differentiation media by oil red O staining based method. Format: functional.
The test system of data set [6] is 3T3-L1. Nature of the data set: Anti-adipogenic activity in mouse 3T3L1 preadipocytes assessed as decrease in lipid accumulation at 10 uM incubated for 8 days in differentiation media by Oil Red O staining based ELISA relative to control. Format: functional. The arrangement: scale not given: the % may be the effect or the level left. Background: In an ELISA, binding on a coated surface is turned into a signal by an enzyme label.

In data set [7] the test system is 3T3-L1. The data set is described as follows: Anti-adipogenic activity in mouse 3T3L1 preadipocytes assessed as decrease in lipid accumulation at 2.5 uM incubated for 8 days in differentiation media by Oil Red O staining based ELISA relative to control. Format: functional. The arrangement: scale not given: the % may be the effect or the level left.
Data set [8] has as its target T1, Pancreatic triacylglycerol lipase. The data set is described as follows: Inhibition of porcine pancreatic lipase using pNPB as substrate measured after 30 mins using plasma treated sample.

`Oc1ccc([C@H]2Oc3cc(O)c(Cc4c(O)cc(O)c5c4O[C@H](c4ccc(O)c(O)c4)[C@@H](O)C5)c(O)c3C[C@@H]2O)cc1O` came in with an IC50 in data set [1] of 102 µM. For the same compound, in the data set with 3T3-L1 [2], the Activity result is given as “Non-Toxic”. Also, the MNTC at 48 h in data set [3] was 50 µM.
In data set [1], `Oc1ccc([C@H]2Oc3c(Cc4c(O)c(Cc5c(O)c(Cc6c(O)cc(O)c7c6O[C@H](c6ccc(O)c(O)c6)[C@@H](O)C7)c(O)c6c5O[C@H](c5ccc(O)c(O)c5)[C@@H](O)C6)c5c(c4O)C[C@H](O)[C@@H](c4ccc(O)c(O)c4)O5)c(O)cc(O)c3C[C@@H]2O)cc1O` registered an IC50 of 18.8 µM. Besides, the Activity is 52.1% in the data set on 3T3-L1 [4], 67.2% with 3T3-L1 [6], 40.1% with 3T3-L1 [7] and “Non-Toxic” in the data set on 3T3-L1 [2]. Also, the inhibition entry in the data set on 3T3-L1 [5] is “Active”. In addition, the MNTC at 48 h in data set [3] is 50 µM.
As to `Oc1ccc([C@H]2Oc3c(Cc4c(O)c(Cc5c(O)cc(O)c6c5O[C@H](c5ccc(O)c(O)c5)[C@@H](O)C6)c5c(c4O)C[C@H](O)[C@@H](c4ccc(O)c(O)c4)O5)c(O)cc(O)c3C[C@@H]2O)cc1O`, in data set [1], half-maximal inhibition (IC50) was put at 45.9 µM. For the same compound, the inhibition entry in the data set with 3T3-L1 [5] is “Active”. Moreover, the Activity entry in the data set with 3T3-L1 [2] is given as “Non-Toxic”. In data set [3], the MNTC at 48 h stood at 50 µM.
Turning to `Oc1ccc([C@H]2Oc3cc(O)c(Cc4c(O)cc5c(c4O)C[C@H](O)[C@@H](c4ccc(O)c(O)c4)O5)c(O)c3C[C@@H]2O)cc1O`, in data set [1], the IC50 is 78.7 µM. The inhibition result in the data set with 3T3-L1 [5] was “Active”. The Activity result in the data set with 3T3-L1 [2] is on record as “Non-Toxic”. Also, in data set [3], the MNTC at 48 h turned out to be 50 µM.
Consider `Oc1cc(O)c2c(c1)O[C@H](c1ccc(O)c(O)c1)[C@@H](O)C2` [CIANIDANOL], for which the IC50 is > 500 µM in data set [1] and 340 µM in data set [8].
`Oc1ccc([C@H]2Oc3c(Cc4c(O)cc(O)c5c4O[C@H](c4ccc(O)c(O)c4)[C@@H](O)C5)c(O)cc(O)c3C[C@@H]2O)cc1O` gave an IC50 in data set [1] of 110 µM. Besides, the Activity entry in the data set on 3T3-L1 [2] was “Non-Toxic”. Moreover, in data set [3], the MNTC at 48 h is 50 µM.

For orientation: IC50 means the concentration that inhibits the measured activity by half.
